According to US20250074890A1, “CYANOPYRIDINE AND CYANOPYRIMIDINE BCL6 DEGRADERS” (DANA-FARBER CANCER INSTITUTE, INC., priority 2021, published 2025):
Where a name gives a salt, the structure may show the parent alone.

What follows are molecules tested against T1, BCL6 (Homo sapiens, UniProt P41182) (assay: HiBiT cellular degradation assay in Su-DHL-4 cells). Conditions: concentration to reach 50% degradation of endogenous SmBiT-tagged BCL6, 24 hours of compound treatment.
T1 construct: Endogenous BCL6 was tagged with the 11-amino acid SmBiT through CRISPR/Cas9 gene editing; endogenous in cells; host or cells: Su-DHL-4 (CRISPR/Cas9 knock-in, single cell clone)
Format: cell-based
Description: DC50 (concentration to reach 50% degradation) values were determined from a cellular degradation assay (HiBiT, Promega™) in Su-DHL-4 cells (Table 1). Endogenous BCL6 was tagged with the 11-amino acid SmBiT through CRISPR/Cas9 gene editing and single cell clone selection. After 24 hours of compound treatment, cells were lysed and incubated with LgBiT protein to reconstitute intact nanoluciferase. Substrate was then added and relative luciferase units were measured. Degradation levels for each treatment were taken as a percentage compared to the control, 100% DMSO (Prism).
Molecule `C[C@H]1CN(c2nc(Nc3ccc4c(c3)n(CCC(C)(C)O)c(=O)n4C)c(Cl)cc2C#N)C[C@@H](N)C1(F)F` (single isomer, unassigned) [Compound 49] has a DC50 greater than 400 nM.
In the case of `C[C@@H]1CN(c2nc(Nc3ccc4c(c3)n(CCC(C)(C)O)c(=O)n4C)c(F)cc2C#N)C[C@H](N)C1(F)F` [Compound 80, 2-((3S,5R)-3-Amino-4,4-difluoro-5-methylpiperidin-1-yl)-5-fluoro-6-((3-(3-hydroxy-3-methylbutyl)-1-methyl-2-oxo-2,3-dihydro-1H-benzo[d]imidazol-5-yl)amino)nicotinonitrile hydrochloride], the DC50 is reported as greater than 400 nM.
With `CNC(=O)COc1cc2cc(Nc3nc(N4C[C@@H](C)C(F)(F)[C@@H](C)C4)c(C#N)cc3Cl)ccc2n(CCCO)c1=O` [Compound 18, 2-((6-((3-Chloro-5-cyano-6-((3R,5S)-4,4-difluoro-3,5-dimethylpiperidin-1-yl)pyridin-2-yl)amino)-1-(3-hydroxypropyl)-2-oxo-1,2-dihydroquinolin-3-yl)oxy)-N-methylacetamide] the DC50 was 5 nM.
`CNC(=O)COc1cc2cc(Nc3nc(N4C[C@@H](C)[C@@H](O)[C@@H](C)C4)c(C#N)cc3Cl)ccc2n(CCN(C)C)c1=O` [Compound 73, 2-((6-((3-chloro-5-cyano-6-((3S,4S,5R)-4-hydroxy-3,5-dimethylpiperidin-1-yl)pyridin-2-yl)amino)-1-(2-(dimethylamino)ethyl)-2-oxo-1,2-dihydroquinolin-3-yl)oxy)-N-methylacetamide] showed a DC50 of 9 nM.
`C[C@@H]1CN(c2nc(Nc3ccc4c(c3)n(CCC3(O)CC3)c(=O)n4C)c(Cl)cc2C#N)C[C@H](N)C1(F)F` [Compound 59, 2-((3S,5R)-3-Amino-4,4-difluoro-5-methylpiperidin-1-yl)-5-chloro-6-((3-(2-(1-hydroxycyclopropyl)ethyl)-1-methyl-2-oxo-2,3-dihydro-1H-benzo[d]imidazol-5-yl)amino)nicotinonitrile] was tested, and the DC50 was 48 nM.
`CNC(=O)COc1cc2cc(Nc3nc(N4C[C@@H](C)C(F)[C@@H](C)C4)c(C#N)cc3Cl)ccc2n(CCN2CCOCC2)c1=O` (stereo partly drawn) [Compound 68, 2-[[6-[[3-Chloro-5-cyano-6-[(3R,5S)-4-fluoro-3,5-dimethyl-1-piperidyl]-2-pyridyl]amino]-1-(2-morpholinoethyl)-2-oxo-3-quinolyl]oxy]-N-methyl-acetamide] showed a DC50 of 4 nM.
With `C[C@H]1CN(c2nc(Nc3ccc4c(c3)n(C[C@@H]3CNC(=O)O3)c(=O)n4C)c(F)cc2C#N)C[C@@H](N)C1(F)F` [Compound 85, 2-[(3R,5S)-3-amino-4,4-difluoro-5-methyl-1-piperidyl]-5-fluoro-6-[[1-methyl-2-oxo-3-[[(5S)-2-oxooxazolidin-5-yl]methyl]benzimidazol-5-yl]amino]pyridine-3-carbonitrile] the DC50 was greater than 400 nM.
`C[C@@H]1CN(c2nc(Nc3ccc4c(c3)cc(OCC3(C)COC3)c(=O)n4C)c(Cl)cc2C#N)C[C@H](C)C1(F)F` [Compound 9, 5-Chloro-2-((3R,5S)-4,4-difluoro-3,5-dimethylpiperidin-1-yl)-6-((1-methyl-3-((3-methyloxetan-3-yl)methoxy)-2-oxo-1,2-dihydroquinolin-6-yl)amino)nicotinonitrile] was tested, and the DC50 was greater than 400 nM.
`CNC(=O)COc1cc2cc(Nc3nc(N4C[C@H](C)C[C@H](N)C4)c(C#N)cc3Cl)ccc2n(C)c1=O` [Compound 40, 2-((6-((6-((3S,5R)-3-Amino-5-methylpiperidin-1-yl)-3-chloro-5-cyanopyridin-2-yl)amino)-1-methyl-2-oxo-1,2-dihydroquinolin-3-yl)oxy)-N-methylacetamide] gave a DC50 greater than 400 nM.
Work on `C[C@H]1CN(c2nc(Nc3ccc4c(c3)n(CCC(C)(C)O)c(=O)n4C)c(F)cc2C#N)C[C@@H](O)[C@H]1F` [Compound 53, 5-Fluoro-2-((3R,4S,5S)-4-fluoro-3-hydroxy-5-methylpiperidin-1-yl)-6-((3-(3-hydroxy-3-methylbutyl)-1-methyl-2-oxo-2,3-dihydro-1H-benzo[d]imidazol-5-yl)amino)nicotinonitrile] yielded a DC50 greater than 400 nM.
